Reference: ChEMBL document CHEMBL5137099, “Discovery of Novel cccDNA Reducers toward the Cure of Hepatitis B Virus Infection” (J Med Chem, 2022)
pIC50: −log10 of the molar value. Calls of active or inactive are those of the source. The rule behind the calls is not given here.

Columns and labels:
[1] = Permeability of the compound by PAMPA analysis; type: ADME; settings: read-out: permeability
Hepatitis B virus [2] = assay: Antiviral activity against HBV infected in human HepDES19 cells assessed as reduction in HBV cccDNA production by measuring inhibition of HBeAg secretion incubated for 5 days by ELISA; type: functional, organism-based; settings: HepDES19, 120 h
Hepatitis B virus [3] = assay: Antiviral activity against HBV infected in human HepG2 cells assessed as reduction in HBeAg secretion incubated for 5 days by counter screen assay; type: functional, organism-based; settings: HepG2, 120 h
[4] = Aqueous solubility of the compound; type: physicochemical; settings: buffer
[5] = Octanol-aqueous buffer distribution coefficient, log D of the compound at pH 7.4 by CAMDIS assay; type: physicochemical
Hepatitis B virus [6] = assay: Antiviral activity against HBV infected in human HepDES19 cells assessed as reduction in HBV cccDNA production by measuring inhibition of HBeAg secretion at 0.3 to 30 uM by southern blot analysis; type: functional, organism-based; settings: dose 0.3-30 µM
Hepatitis B virus [7] = assay: Antiviral activity against HBV infected in human primary hepatocyte cells assessed as reduction in HBV cccDNA production by measuring inhibition of HBsAg secretion measured after 48 hrs by ELISA; type: functional, organism-based
[8] = Metabolic stability in mouse hepatocytes assessed as intrinsic clearance; type: ADME, cell-based, Hepatocyte; settings: read-out: CLH
[9] = Cmax in C3H/J mouse plasma at 5 mg/kg, po by LC-MS/MS analysis; type: ADME, organism-based; design: dose 5 mg/kg, route po
[10] = Dose normalized Cmax in C3H/J mouse at 5 mg/kg, po by LC-MS/MS analysis; type: ADME, organism-based; settings: in vivo
[11] = AUC (0 to infinity) in C3H/J mouse at 5 mg/kg, po by LC-MS/MS analysis; type: ADME, organism-based; design: time infinity, dose 5 mg/kg, route po; settings: in vivo
[12] = Dose normalized AUC (0 to 24 hrs) in C57BL/6 mouse at 5 mg/kg, po by LC-MS/MS analysis; type: ADME, organism-based; settings: in vivo
[13] = Cmax in C3H/J mouse plasma at 100 mg/kg, po by LC-MS/MS analysis; type: ADME, organism-based; design: dose 100 mg/kg, route po
[14] = Cmax in C3H/J mouse plasma at 20 mg/kg, po by LC-MS/MS analysis; type: ADME, organism-based; design: dose 20 mg/kg, route po
[15] = Cmax in C3H/J mouse plasma at 300 mg/kg, po by LC-MS/MS analysis; type: ADME, organism-based; design: dose 300 mg/kg, route po
[16] = Tmax in C3H/J mouse at 5 mg/kg, po by LC-MS/MS analysis; type: ADME, organism-based; settings: in vivo
[17] = Tmax in C3H/J mouse at 20 mg/kg, po by LC-MS/MS analysis; type: ADME, organism-based; settings: in vivo
[18] = Tmax in C3H/J mouse at 100 mg/kg, po by LC-MS/MS analysis; type: ADME, organism-based; settings: in vivo
[19] = Tmax in C3H/J mouse at 300 mg/kg, po by LC-MS/MS analysis; type: ADME, organism-based; settings: in vivo
[20] = AUC (0 to infinity) in C3H/J mouse at 20 mg/kg, po by LC-MS/MS analysis; type: ADME, organism-based; design: time infinity, dose 20 mg/kg, route po; settings: in vivo
[21] = AUC (0 to infinity) in C3H/J mouse at 100 mg/kg, po by LC-MS/MS analysis; type: ADME, organism-based; design: time infinity, dose 100 mg/kg, route po; settings: in vivo
[22] = AUC (0 to 12 hrs) in C3H/J mouse at 300 mg/kg, po by LC-MS/MS analysis; type: ADME, organism-based; design: time < 12 hr, dose 300 mg/kg, route po; settings: in vivo
[23] = Half life in C3H/J mouse at 5 mg/kg, po by LC-MS/MS analysis; type: ADME, organism-based; settings: in vivo
[24] = Half life in C3H/J mouse at 20 mg/kg, po by LC-MS/MS analysis; type: ADME, organism-based; settings: in vivo
[25] = Half life in C3H/J mouse at 100 mg/kg, po by LC-MS/MS analysis; type: ADME, organism-based; settings: in vivo
[26] = Dose normalized Cmax in C3H/J mouse at 20 mg/kg, po by LC-MS/MS analysis; type: ADME, organism-based; settings: in vivo
[27] = Dose normalized Cmax in C3H/J mouse at 100 mg/kg, po by LC-MS/MS analysis; type: ADME, organism-based; settings: in vivo
[28] = Dose normalized Cmax in C3H/J mouse at 300 mg/kg, po by LC-MS/MS analysis; type: ADME, organism-based; settings: in vivo
[29] = Dose normalized AUC (0 to 24 hrs) in C3H/J mouse at 20 mg/kg, po by LC-MS/MS analysis; type: ADME, organism-based; settings: in vivo
[30] = Dose normalized AUC (0 to 24 hrs) in C3H/J mouse at 100 mg/kg, po by LC-MS/MS analysis; type: ADME, organism-based; settings: in vivo
[31] = Dose normalized AUC (0 to 12 hrs) in C3H/J mouse at 300 mg/kg, po by LC-MS/MS analysis; type: ADME, organism-based; settings: in vivo
[32] = Toxicity in C3H/J mouse assessed as tolerability at 100 to 300 mg/kg BID for 5 days; type: organism-based; settings: in vivo, 120 h, dose 100-300 mg/kg, time 5 day
Hepatitis B virus [33] = assay: Antiviral activity against HBV infected HBVcircle mouse model assessed as reduction in HBsAg levels in mouse serum at 300 mg/kg, po bid treated for 3 weeks and measured up to 56 days; type: functional, organism-based
Hepatitis B virus [34] = assay: Antiviral activity against HBV infected HBVcircle mouse model assessed as reduction in HBeAg levels in mouse serum at 300 mg/kg, po bid treated for 3 weeks and measured up to 56 days; type: functional, organism-based
Hepatitis B virus [35] = assay: Antiviral activity against HBV infected HBVcircle mouse model assessed as reduction in cccDNA levels in mouse liver at 300 mg/kg, po bid treated for 3 weeks and measured up to 56 days by qPCR analysis; type: functional, organism-based
[36] = fCmax in HBVcircle mouse model at 300 mg/kg BID; type: ADME, organism-based; settings: in vivo
[37] = fCmax in HBVcircle mouse model at 100 mg/kg BID; type: ADME, organism-based; settings: in vivo
[38] = fCmax in HBVcircle mouse model at 100 mg/kg QD; type: ADME, organism-based; settings: in vivo
[39] = fCaverage in HBVcircle mouse model at 300 mg/kg BID; type: ADME, organism-based; settings: in vivo
[40] = fCaverage in HBVcircle mouse model at 100 mg/kg BID; type: ADME, organism-based; settings: in vivo
[41] = fCaverage in HBVcircle mouse model at 100 mg/kg QD; type: ADME, organism-based; settings: in vivo
[42] = fCmin in HBVcircle mouse model at 300 mg/kg BID; type: ADME, organism-based; settings: in vivo
[43] = fCmin in HBVcircle mouse model at 100 mg/kg BID; type: ADME, organism-based; settings: in vivo
[44] = fCmin in HBVcircle mouse model at 100 mg/kg QD; type: ADME, organism-based; settings: in vivo

Papp [1]: 2.82 ×10⁻⁶ cm/s | pIC50 (Hepatitis B virus [2]): 6.24 | solubility [4]: > 452 µg/mL | logD [5]: 1 | CLint scaled [8]: 51.9 mL/min/kg | Cmax [9]: 828 ng/mL | Cmax/dose [10]: 166 ng/mL | AUC(0-inf) [11]: 857 ng·h/mL | AUC/dose [12]: 1042 ng·h/mL | Cmax [13]: 32200 ng/mL | Cmax [14]: 8160 ng/mL | Cmax [15]: 59900 ng/mL | Tmax [16]: 0.25 h | Tmax [17]: 0.5 h | Tmax [18]: 0.5 h | Tmax [19]: 2.67 h | AUC(0-inf) [20]: 11800 ng·h/mL | AUC(0-inf) [21]: 120000 ng·h/mL | AUC(0-t) at 12 h [22]: 453000 ng·h/mL | half-life [23]: 3.46 h | half-life [24]: 3.45 h | half-life [25]: 1.82 h | Cmax/dose [26]: 408 ng/mL | Cmax/dose [27]: 322 ng/mL | Cmax/dose [28]: 200 ng/mL | AUC/dose [29]: 591 (ng·h/mL)/(mg/kg) | AUC/dose [30]: 1200 (ng·h/mL)/(mg/kg) | AUC/dose [31]: 1510 (ng·h/mL)/(mg/kg) | fCmax [36]: 3.452 µM | fCmax [37]: 1151 nM | fCmax [38]: 1151 nM | f(Cave) [39]: 1053 nM | f(Cave) [40]: 351 nM | f(Cave) [41]: 178 nM | fCmin [42]: 62.2 nM | fCmin [43]: 20.7 nM | fCmin [44]: 0.23 nM
Compound: O=C(O)[C@@H]1CCN(c2ccc3c(=O)c4cccc(Cl)c4oc3c2)C1
pIC50 (Hepatitis B virus [3]): < 4.30 | Activity (Hepatitis B virus [6]): Active | pIC50 (Hepatitis B virus [7]): 5.94 | Activity [32]: Non-Toxic | Activity (Hepatitis B virus [33]): Active | Activity (Hepatitis B virus [34]): Active | Activity (Hepatitis B virus [35]): Active
